Results reported in patent US9695155B2, “Herbicidal substituted pyrimidinyloxy benzene compounds” (E. I. DU PONT DE NEMOURS AND COMPANY, priority 2013, dated 2017).

Tests used:
[1] = test system: kochia; assay: Test A preemergence; assay type: in vivo, Kochia scoparia; details: for Kochia plant response rating: 500 g ai/ha
Summary of the method: (§1)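 Visual injury scored 0–100 (100 = complete control) against untreated controls about 10 days after treatment in a greenhouse. Test chemicals, formulated with surfactant in non-phytotoxic solvent, were sprayed on soil preemergence or on 2-10 cm, one- to two-leaf plants postemergence.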

[2] = test system: ragweed; assay: Test A preemergence; assay type: in vivo, Ambrosia elatior; details: for Ragweed plant response rating: 500 g ai/ha
Summary of the method: as §1

[3] = test system: kochia; assay: Test A postemergence; assay type: in vivo, Kochia scoparia
Summary of the method: as §1

[4] = test system: blackgrass; assay: Test A postemergence; assay type: in vivo, Alopecurus myosuroides
Summary of the method: as §1

[5] = test system: blackgrass; assay: Test D postemergence; assay type: in vivo, Alopecurus myosuroides; details: Postemergence, scale 0 to 100 (0 no effect, 100 complete control); for pest or weed control at 62 g/ha / pest or weed control at 16 g/ha / pest or weed control at 31 g/ha / pest or weed control at 125 g/ha: Alopecurus myosuroides, post-emergence, read-out: Plant response rating, Blackgrass; for pest or weed control at 16 g/ha: 16 g ai/ha
Summary of the method: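 Visual rating vs untreated controls, 0 = no effect, 100 = complete control, taken 7–21 d after treatment. Pre: silt loam soil. Post: potting medium, plants 2–18 cm, 1–4 leaf. Formulation: non-phytotoxic solvent mix + surfactant.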

[6] = test system: lambsquarters; assay: Test E preemergence; assay type: in vivo, Chenopodium album; details: for Lambsquarters plant response rating: scale 0 to 100 (0 no effect, 100 complete control); for Plant response rating, Lambsquarters: scale 0 to 100, 0 no effect, 100 complete control
Summary of the method: (§2)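 Test chemicals formulated in a non-phytotoxic solvent mixture containing a surfactant were applied preemergence to seeds in silt loam soil or postemergence to plants at the 1- to 4-leaf stage in potting mix. After 14 to 21 days in a greenhouse, injury was visually rated against controls on a 0-100 scale (0 = no effect, 100 = complete control).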

[7] = test system: large (Lg) crabgrass; assay: Test E preemergence; assay type: in vivo, Digitaria sanguinalis; details: for Crabgrass, Large plant response rating: scale 0 to 100 (0 no effect, 100 complete control); for Plant response rating, Crabgrass, Large: scale 0 to 100, 0 no effect, 100 complete control
Summary of the method: as §2

[8] = test system: Italian ryegrass; assay: Test E preemergence; assay type: in vivo, Lolium multiflorum; details: for Ryegrass, Italian plant response rating: scale 0 to 100 (0 no effect, 100 complete control); for Plant response rating, Ryegrass, Italian: scale 0 to 100, 0 no effect, 100 complete control
Summary of the method: as §2

[9] = test system: dayflower; assay: Test E preemergence; assay type: in vivo, Commelina virginica; details: for Dayflower, VA plant response rating: scale 0 to 100 (0 no effect, 100 complete control); for Plant response rating, Dayflower, VA: scale 0 to 100, 0 no effect, 100 complete control
Summary of the method: as §2

[10] = test system: yellow nutsedge; assay: Test E preemergence; assay type: in vivo, Cyperus esculentus; details: for Nutsedge, Yellow plant response rating: scale 0 to 100 (0 no effect, 100 complete control); for Plant response rating, Nutsedge, Yellow: scale 0 to 100, 0 no effect, 100 complete control
Summary of the method: as §2

[11] = test system: cocklebur; assay: Test E preemergence; assay type: in vivo, Xanthium strumarium; details: for Cocklebur plant response rating: scale 0 to 100 (0 no effect, 100 complete control); for Plant response rating, Cocklebur: scale 0 to 100, 0 no effect, 100 complete control
Description: Seeds of plant species selected from corn (Zea mays), soybean (Glycine max), velvetleaf (Abutilon theophrasti), lambsquarters (Chenopodium album), wild poinsettia (Euphorbia heterophylla), palmer pigweed (Amaranthus palmeri), waterhemp (common waterhemp, Amaranthus rudis), surinam grass (Brachiaria decumbens), large (Lg) crabgrass (Digitaria sanguinalis), Brazilian crabgrass (Digitaria horizontalis), fall panicum (Panicum dichotomiflorum), giant foxtail (Setaria faberii), green foxtail (Setaria viridis), goosegrass (Eleusine indica), johnsongrass (Sorghum halepense), ragweed (common ragweed, Ambrosia elatior), barnyardgrass (Echinochloa crus-galli), sandbur (southern sandbur, Cenchrus echinatus), arrowleaf sida (Sida rhombifolia), Italian ryegrass (Lolium multiflorum), dayflower (Virginia (VA) dayflower, Commelina virginica), field bindweed (Convolvulus arvensis), morningglory (Ipomoea coccinea), nightshade (eastern black nightshade, Solanum ptycanthum), kochia (Kochia scoparia), yellow nutsedge (Cyperus esculentus), cocklebur (common cocklebur, Xanthium strumarium), smartweed (ladysthumb smartweed, and hairy beggarticks (Bidens pilosa), were planted into a silt loam soil and treated preemergence with test chemicals formulated in a non-phytotoxic solvent mixture which included a surfactant.
At the same time, plants from these crop and weed species and also horseweed (Canada horseweed, Conyza canadensis), waterhemp_RES1, (ALS & Triazine resistant common waterhemp, Amaranthus rudis), and waterhemp_RES2, (ALS & HPPD resistant common waterhemp, Amaranthus rudis) were planted in pots containing Redi-Earth® planting medium (Scotts Company, 14111 Scottslawn Road, Marysville, Ohio 43041) comprising spaghnum peat moss, vermiculite, wetting agent and starter nutrients were treated with postemergence applications of test chemicals formulated in the same manner. Plants ranged in height from 2 to 18 cm for postemergence treatments (1- to 4-leaf stage). Treated plants and controls were maintained in a greenhouse for 14 to 21 days, after which time all species were compared to controls and visually evaluated. Plant response ratings, summarized in Table E, are based on a scale of 0 to 100 where 0 is no effect and 100 is complete control. A dash (-) response means no test result.

[12] = 125 g ai/ha, 0 to 100 scale where 0 is no effect and 100 is complete control
[13] = 0 to 100 scale where 0 is no effect and 100 is complete control
[14] = 500 g ai/ha, 0 to 100 scale where 0 is no effect and 100 is complete control
[15] = 125 g ai/ha, 0 to 100 scale, 0 no effect, 100 complete control

SMILES | pest or weed control at 62 g/ha ([5]; 62 g ai/ha) [%] | pest or weed control at 16 g/ha [5] [%] | pest or weed control at 31 g/ha ([5]; 31 g ai/ha) [%] | Lambsquarters plant response rating ([6]; 31 g ai/ha) | Lambsquarters plant response rating ([6]; 62 g ai/ha) | Plant response rating, Lambsquarters ([6]; 125 g ai/ha) | Crabgrass, Large plant response rating ([7]; 16 g ai/ha) | Crabgrass, Large plant response rating ([7]; 31 g ai/ha) | Crabgrass, Large plant response rating ([7]; 62 g ai/ha) | Plant response rating, Crabgrass, Large ([7]; 125 g ai/ha) | Ryegrass, Italian plant response rating ([8]; 31 g ai/ha) | Ryegrass, Italian plant response rating ([8]; 62 g ai/ha) | Plant response rating, Ryegrass, Italian ([8]; 125 g ai/ha) | Dayflower, VA plant response rating ([9]; 16 g ai/ha) | Dayflower, VA plant response rating ([9]; 31 g ai/ha) | Dayflower, VA plant response rating ([9]; 62 g ai/ha) | Plant response rating, Dayflower, VA ([9]; 125 g ai/ha) | Nutsedge, Yellow plant response rating ([10]; 31 g ai/ha) | Nutsedge, Yellow plant response rating ([10]; 62 g ai/ha) | Plant response rating, Nutsedge, Yellow ([10]; 125 g ai/ha) | further results
FC(F)(F)COc1cnn(-c2ccccc2Oc2ncc(Cl)cn2)c1 [Compound 138, 5-chloro-2-[2-[4-(2,2,2-trifluoroethoxy)-1H-pyrazol-1-yl]phenoxy]pyrimidine] | 10 | 5 | 5 | 50 | 100 | 100 | 0 | 70 | 98 | 100 | 0 | 0 | 20 | 0 | 5 | 30 | 40 | 10 | 15 | 40 | Plant response rating, Kochia [1, 12]: 90; Kochia plant response rating [1, 13]: 100; Plant response rating, Ragweed [2, 12]: 30; Ragweed plant response rating [2, 13]: 60; Kochia plant response rating [3, 12]: 90; Plant response rating, Kochia [3, 14]: 100; Blackgrass plant response rating [4, 12]: 50; Plant response rating, Blackgrass [4, 14]: 90; pest or weed control at 125 g/ha ([5]; 125 g ai/ha): 15%; Lambsquarters plant response rating ([6]; 16 g ai/ha): 0; Ryegrass, Italian plant response rating ([8]; 16 g ai/ha): 0; Nutsedge, Yellow plant response rating ([10]; 16 g ai/ha): 0
Fc1cccc(Oc2ncc(Cl)cn2)c1-n1cc(Br)cn1 [Compound 178, 2-[2-(4-bromo-1H-pyrazol-1-yl)-3-fluorophenoxy]-5-chloropyrimidine] | 25 | 5 | 10 |  |  |  |  |  |  |  |  |  |  |  |  |  |  |  |  |  | 
N#Cc1cccc(Oc2ncc(F)cn2)c1-n1cc(Cl)cn1 [Compound 73] |  |  |  | 65 | 98 | 100 | 0 | 30 | 100 | 100 | 20 | 35 | 35 | 0 | 0 | 25 | 65 | 0 | 50 | 40 | Lambsquarters plant response rating ([6]; 16 g ai/ha): 10; Plant response rating, Lambsquarters ([6]; 250 g ai/ha): 100; Plant response rating, Crabgrass, Large ([7]; 250 g ai/ha): 100; Ryegrass, Italian plant response rating ([8]; 16 g ai/ha): 0; Plant response rating, Ryegrass, Italian ([8]; 250 g ai/ha): 65; Plant response rating, Dayflower, VA ([9]; 250 g ai/ha): 95; Nutsedge, Yellow plant response rating ([10]; 16 g ai/ha): 0; Plant response rating, Nutsedge, Yellow ([10]; 250 g ai/ha): 30; Cocklebur plant response rating ([11]; 16 g ai/ha): 0; Cocklebur plant response rating ([11]; 31 g ai/ha): 0; Plant response rating, Cocklebur ([11]; 250 g ai/ha): 25
N#Cc1cccc(Oc2ncc(Cl)cn2)c1-n1cc(-n2ccc(C(F)(F)F)n2)cn1 [Compound 284] |  |  |  |  |  |  |  |  |  |  |  |  |  |  |  |  |  |  |  |  | Kochia plant response rating (0 to 100 scale) ([1]; 125 g ai/ha): 80; Kochia plant response rating [1, 13]: 100; Ragweed plant response rating (0 to 100 scale) ([2]; 125 g ai/ha): 0; Ragweed plant response rating [2, 13]: 0; Plant response rating, Kochia [3, 15]: 60; Plant response rating, Kochia [3, 14]: 100; Plant response rating, Blackgrass [4, 15]: 30; Plant response rating, Blackgrass [4, 14]: 70; Plant response rating, Blackgrass ([5]; 62 g ai/ha): 25; Plant response rating, Blackgrass ([5]; 31 g ai/ha): 20; Plant response rating, Blackgrass ([5]; 125 g ai/ha): 30; Plant response rating, Blackgrass ([5]; 250 g ai/ha): 35
FC(F)(F)c1cn(-c2ccccc2Oc2ncc(Cl)cn2)nn1 [Compound 166, 5-chloro-2-[2-[4-(trifluoromethyl)-1H-1,2,3-triazol-1-yl]phenoxy]pyrimidine] | 40 | 15 | 20 |  |  |  |  |  |  |  |  |  |  |  |  |  |  |  |  |  | pest or weed control at 125 g/ha ([5]; 125 g ai/ha): 65%
FC(F)(F)c1cnn(-c2ccccc2Oc2ncc(Cl)cn2)c1 [Compound 16] |  |  |  | 80 | 98 | 98 | 0 | 0 | 65 | 80 | 0 | 15 | 40 | 0 | 0 | 35 | 70 | 0 | 0 | 35 | Lambsquarters plant response rating ([6]; 16 g ai/ha): 50; Plant response rating, Lambsquarters ([6]; 250 g ai/ha): 98; Plant response rating, Crabgrass, Large ([7]; 250 g ai/ha): 100; Ryegrass, Italian plant response rating ([8]; 16 g ai/ha): 0; Plant response rating, Ryegrass, Italian ([8]; 250 g ai/ha): 75; Plant response rating, Dayflower, VA ([9]; 250 g ai/ha): 98; Nutsedge, Yellow plant response rating ([10]; 16 g ai/ha): 0; Plant response rating, Nutsedge, Yellow ([10]; 250 g ai/ha): 35; Cocklebur plant response rating ([11]; 16 g ai/ha): 0
FC(F)(F)c1cnn(-c2c(Cl)cccc2Oc2ncc(Cl)cn2)c1 [Compound 167] |  |  |  | 98 | 100 | 100 | 0 | 65 | 100 | 100 | 0 | 10 | 40 | 0 | 5 | 65 | 100 | 0 | 0 | 0 | Cocklebur plant response rating ([11]; 16 g ai/ha): 0; Cocklebur plant response rating ([11]; 31 g ai/ha): 0; Cocklebur plant response rating ([11]; 62 g ai/ha): 100; Plant response rating, Cocklebur ([11]; 125 g ai/ha): 90
